Results: ChEMBL document CHEMBL4699438, “Toward the discovery and development of effective modulators of α-synuclein amyloid aggregation” (Eur J Med Chem, 2019)

Key:
[1] = target: T1, Alpha-synuclein (Homo sapiens, UniProt P37840); test: Inhibition of human alpha-synuclein filament formation expressed in Escherichia coli BL21(DE3) cells incubated for 72 hrs by thioflavin S based fluorescence assay
[2] = target: T1, Alpha-synuclein; test: Inhibition of alpha-synuclein fibril formation (unknown origin) incubated for 24 hrs to 7 days by thioflavin S based fluorescence assay
[3] = target: T1, Alpha-synuclein; test: Inhibition of alpha-synuclein fibril formation (unknown origin) incubated for 6 days by thioflavin S based fluorescence assay
[4] = target: T1, Alpha-synuclein; test: Inhibition of human alpha-synuclein aggregation expressed in Escherichia coli BL21(DE3) cells assessed as percent of un-inhibition measured at 16 hrs by thioflavin T based fluorescence assay relative to control; set-up: concentration or dose not given beside the values
[5] = target: Amyloid-beta precursor protein (Homo sapiens, UniProt P05067); test: Inhibition of amyloid beta (1 to 40) (unknown origin) incubated for 24 hrs to 7 days by thioflavin S based fluorescence assay
[6] = target: T1, Alpha-synuclein; test: Inhibition of alpha-synuclein aggregation (unknown origin) incubated for 8 days by thioflavin S based fluorescence assay
[7] = target: T1, Alpha-synuclein; test: Inhibition of alpha-synuclein aggregation (unknown origin) expressed in Escherichia coli BL21(DE3) cells assessed as HFIP-induced protein aggregation measured after 16 to 18 hrs by thioflavin T based fluorescence assay relative to control; set-up: scale not given: the % may be the effect or the level left; conditions: time hrs 16-18
[8] = target: T1, Alpha-synuclein; test: Inhibition of alpha-synuclein aggregation (unknown origin) expressed in Escherichia coli BL21(DE3) cells; conditions: concentration not given here
[9] = target: T1, Alpha-synuclein; test: Inhibition of wild type alpha-synuclein aggregation (unknown origin) expressed in Escherichia coli BL21 cells incubated for 30 days by thioflavin T based fluorescence assay
[10] = target: T1, Alpha-synuclein; test: Inhibition of wild type human alpha-synuclein fibrillization expressed in Escherichia coli BL21(DE3)pLysS by thioflavin-T based fluorescence assay
[11] = Elimination half-life in human; type: ADME; conditions: read-out: beta t1/2 (converted)

Chain of Amyloid-beta precursor protein (P05067 whole entry): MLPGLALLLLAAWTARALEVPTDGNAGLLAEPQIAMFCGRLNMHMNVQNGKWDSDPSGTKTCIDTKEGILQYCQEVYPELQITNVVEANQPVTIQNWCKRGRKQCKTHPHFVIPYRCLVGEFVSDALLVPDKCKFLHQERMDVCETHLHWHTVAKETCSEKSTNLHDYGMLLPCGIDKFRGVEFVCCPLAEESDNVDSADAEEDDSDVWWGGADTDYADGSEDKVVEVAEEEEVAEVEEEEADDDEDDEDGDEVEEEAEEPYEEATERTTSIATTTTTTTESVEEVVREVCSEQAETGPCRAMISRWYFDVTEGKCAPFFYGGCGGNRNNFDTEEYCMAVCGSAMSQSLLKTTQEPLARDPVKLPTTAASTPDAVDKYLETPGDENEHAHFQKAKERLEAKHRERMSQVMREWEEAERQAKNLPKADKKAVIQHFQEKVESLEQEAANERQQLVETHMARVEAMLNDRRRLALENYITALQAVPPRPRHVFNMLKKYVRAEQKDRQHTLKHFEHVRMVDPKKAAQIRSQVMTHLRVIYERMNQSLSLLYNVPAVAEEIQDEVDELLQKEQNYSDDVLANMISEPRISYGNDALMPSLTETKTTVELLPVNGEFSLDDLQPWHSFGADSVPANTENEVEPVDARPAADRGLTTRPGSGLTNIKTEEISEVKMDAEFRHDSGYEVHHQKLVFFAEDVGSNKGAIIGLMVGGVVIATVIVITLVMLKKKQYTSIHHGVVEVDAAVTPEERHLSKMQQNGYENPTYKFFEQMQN

Compound: Oc1cc(O)c2cc(O)c(-c3ccc(O)c(O)c3)[o+]c2c1 [CYANIDIN CHLORIDE]
- IC50 [1]: 10.3 µM

Compound: CO[C@H]1/C=C/O[C@@]2(C)Oc3c(C)c(O)c4c(O)c(c(/C=N/N5CCN(C)CC5)c(O)c4c3C2=O)NC(=O)/C(C)=C\C=C\[C@H](C)[C@H](O)[C@@H](C)[C@@H](O)[C@@H](C)[C@H](OC(C)=O)[C@@H]1C [RIFAMPIN]
- IC50 [1]: 46.2 µM
- IC50 [2]: 7.1 µM

Compound: O=C(O[C@@H]1Cc2c(O)cc(O)cc2O[C@H]1c1cc(O)c(O)c(O)c1)c1cc(O)c(O)c(O)c1 [GALLOCATECHIN GALLATE]
- IC50 [1]: 3.6 µM

Compound: O=c1cc(-c2ccccc2)oc2cc(O)c(O)c(O)c12 [BAICALEIN]
- IC50 [1]: 8.2 µM

Compound: Oc1cc(O)c2c(c1)O[C@H](c1ccc(O)c(O)c1)[C@H](O)[C@H]2c1c(O)cc(O)c2c1O[C@H](c1ccc(O)c(O)c1)[C@H](O)C2 [PROCYANIDIN B2]
- IC50 [1]: 4.3 µM

Compound: Oc1cc(O)c2c(c1)O[C@H](c1cc(O)c(O)c(O)c1)[C@@H](O)C2 [GALLOCATECHIN]
- IC50 [1]: 8.9 µM

Compound: CCCN1C[C@H](CSC)C[C@@H]2c3cccc4[nH]cc(c34)C[C@H]21 [PERGOLIDE]
- IC50 [3]: 7.9 µM

Compound: O=C(O[C@@H]1Cc2c(O)cc(O)cc2O[C@H]1c1ccc(O)c(O)c1)c1cc(O)c(O)c(O)c1 [(-)-CATECHINGALLATE]
- IC50 [1]: 21.4 µM

Compound: CN(C)[C@@H]1C(O)=C(C(N)=O)C(=O)[C@@]2(O)C(O)=C3C(=O)c4c(O)cccc4[C@@](C)(O)[C@H]3C[C@@H]12 [TETRACYCLINE]
- IC50 [2]: 6.06 µM

Compound: CC[C@H](C)[C@H](NC(=O)[C@H](Cc1ccc(O)cc1)NC(=O)[C@H](CCCCN)NC(=O)CNC(=O)[C@H]1CCCN1C(=O)[C@@H](NC(=O)[C@H](Cc1ccc(O)cc1)NC(=O)[C@@H](NC(=O)[C@@H](NC(=O)[C@H](CC(C)C)NC(=O)[C@H](CCCCN)NC(=O)[C@@H](N)CCCCN)[C@@H](C)O)C(C)C)[C@@H](C)CC)C(=O)N[C@H](C(=O)N[C@H](C(=O)N[C@@H](CO)C(=O)N[C@@H](C)C(=O)O)C(C)C)[C@@H](C)O
- Remaining aggregation (% of control) [4]: 18%

Compound: O=c1c(O)c(-c2ccc(O)c(O)c2)oc2cc(O)cc(O)c12 [QUERCETIN]
- IC50 [1]: 20 µM

Compound: Oc1cc(O)c2c(c1)O[C@H](c1ccc(O)c(O)c1)[C@H](O)C2 [(-)-EPICATECHIN]
- IC50 [1]: 29.9 µM
- IC50 [2]: 0.8 µM

Compound: CC1=C(/C=C/C(C)=C/C=C/C(C)=C/C=O)C(C)(C)CCC1 [RETINAL]
- IC50 [2]: 0.19 µM
- IC50 [5]: 0.18 µM

Compound: CC(Cc1ccc(O)c(O)c1)C(C)Cc1ccc(O)c(O)c1 (configuration not stated) [NORDIHYDROGUAIARETIC ACID]
- IC50 [6]: 0.21 µM
- IC50 [2]: 0.22 µM

Compound: CC[C@H](C)[C@H](NC(=O)[C@H](Cc1c[nH]c2ccccc12)NC(=O)[C@H](CCCCN)NC(=O)CN)C(=O)N[C@H](C(=O)N[C@H](C(=O)N[C@@H](CO)C(=O)N[C@H](C(=O)N1CCC[C@@H]1C(=O)N1CCC[C@H]1C(=O)N[C@@H](CCCCN)C(=O)N[C@@H](CCCCN)C(=O)N[C@@H](CC(C)C)C(=O)N[C@H](C(=O)N[C@H](C(=O)N[C@@H](Cc1c[nH]c2ccccc12)C(=O)N[C@H](C(=O)N1CCC[C@@H]1C(=O)O)[C@@H](C)CC)C(C)C)[C@@H](C)O)[C@@H](C)CC)C(C)C)[C@@H](C)O
- Activity [7]: 34%
- inhibition [8]: 65%

Compound: H-KTWNAAAGKWTE-OH
- Remaining aggregation (% of control) [4]: 81%

Compound: C[C@]12CC[C@@H]3c4ccc(O)cc4CC[C@H]3[C@@H]1CCC2=O [ESTRONE]
- IC50 [6]: 93.1 µM

Compound: Oc1cc(O)c2c(c1)O[C@H](c1cc(O)c(O)c(O)c1)[C@H](O)C2 [EPIGALLOCATECHIN]
- IC50 [1]: 10.6 µM

Compound: COc1cc(/C=C/c2cc(/C=C/c3ccc(O)c(OC)c3)[nH]n2)ccc1O [CURCUMIN PYRAZOLE]
- IC50 [9]: 127 µM

Compound: O=c1c(O)cccc2cc(O)c(O)c(O)c12 [PURPUROGALLIN]
- IC50 [1]: 12.9 µM

Compound: CC1=C(/C=C/C(C)=C/C=C/C(C)=C/C(=O)O)C(C)(C)CCC1 [TRETINOIN]
- IC50 [2]: 3 µM
- IC50 [5]: 0.18 µM

Compound: CC1=C(/C=C/C(C)=C/C=C/C(C)=C/CO)C(C)(C)CCC1 [RETINOL]
- IC50 [2]: 0.19 µM
- IC50 [5]: 0.18 µM

Compound: O=C1C=CC(=O)c2ccccc21 [NAPHTHOQUINONE]
- IC50 [10]: 15 µM

Compound: CC1=CC(=O)c2ccccc2C1=O [MENADIONE]
- IC50 [10]: 15 µM

Compound: C[C@]12CC[C@@H]3c4ccc(O)cc4CC[C@H]3[C@@H]1CC[C@@H]2O [ESTRADIOL]
- IC50 [6]: 60 µM

Compound: O=c1c(O)c(-c2cc(O)c(O)c(O)c2)oc2cc(O)cc(O)c12 [MYRICETIN]
- IC50 [1]: 13.3 µM
- IC50 [2]: 0.22 µM

Compound: CC(C)C[C@H]1C(=O)N2CCC[C@H]2[C@]2(O)O[C@](NC(=O)[C@@H]3C=C4c5cccc6[nH]c(Br)c(c56)C[C@H]4N(C)C3)(C(C)C)C(=O)N12 [BROMOCRIPTINE]
- IC50 [3]: 24.7 µM

Compound: Oc1cc(O)c2c(c1)O[C@H](c1ccc(O)c(O)c1)[C@H](O)[C@H]2c1c(O)cc(O)c2c1O[C@H](c1ccc(O)c(O)c1)[C@@H](O)C2 [PROCYANIDIN B1]
- IC50 [1]: 7.3 µM

Compound: O=C(O[C@@H]1Cc2c(O)cc(O)cc2O[C@@H]1c1ccc(O)c(O)c1)c1cc(O)c(O)c(O)c1 [EPICATECHIN GALLATE]
- IC50 [1]: 9.8 µM
- half-life [11]: 3.4 h

Compound: O=c1cc(-c2ccc(O)c(O)c2)oc2cc(O)cc(O)c12 [LUTEOLIN]
- IC50 [1]: 28 µM

Compound: CC1=C(C/C=C(\C)CCC[C@H](C)CCC[C@H](C)CCCC(C)C)C(=O)c2ccccc2C1=O [PHYTONADIONE]
- IC50 [10]: 15 µM

Compound: COc1cc(/C=C/c2cc(/C=C/c3ccc(O)c(OC)c3)n(-c3cccc([N+](=O)[O-])c3)n2)ccc1O
- IC50 [9]: 89.1 µM

Compound: CC[C@H](C)[C@H](NC(=O)[C@H](Cc1c[nH]c2ccccc12)NC(=O)[C@H](CCCCN)NC(=O)CNC(=O)[C@H]1CCCN1C(=O)[C@@H](NC(=O)[C@H](Cc1c[nH]c2ccccc12)NC(=O)[C@@H](NC(=O)[C@@H](NC(=O)[C@H](CC(C)C)NC(=O)[C@H](CCCCN)NC(=O)[C@@H](N)CCCCN)[C@@H](C)O)C(C)C)[C@@H](C)CC)C(=O)N[C@H](C(=O)N[C@H](C(=O)N[C@@H](CO)C(=O)N[C@@H](C)C(=O)O)C(C)C)[C@@H](C)O
- Remaining aggregation (% of control) [4]: 19%
- Activity [7]: 27%
- inhibition [8]: 75%

Compound: CC[C@H](C)[C@H](NC(=O)[C@H](CO)NC(=O)[C@H](Cc1c[nH]c2ccccc12)NC(=O)[C@@H](NC(=O)[C@H](CC(C)C)NC(=O)[C@H](CCCCN)NC(=O)[C@@H](N)CCCCN)[C@@H](C)O)C(=O)N1CCC[C@@H]1C(=O)NCC(=O)N[C@@H](CCCCN)C(=O)N[C@@H](CCCCN)C(=O)N[C@@H](Cc1c[nH]c2ccccc12)C(=O)N[C@H](C(=O)N[C@H](C(=O)N[C@@H](CO)C(=O)N[C@@H](C)C(=O)O)C(C)C)[C@@H](C)O
- Remaining aggregation (% of control) [4]: 20%

Compound: O=C(/C=C/c1ccc(O)c(O)c1)O[C@H](Cc1ccc(O)c(O)c1)C(=O)O [ROSMARINIC ACID]
- IC50 [2]: 0.21 µM

Compound: CC(C)=CCC/C(C)=C/CC/C(C)=C/CC/C(C)=C/CC1=C(C)C(=O)c2ccccc2C1=O [MENATETRENONE]
- IC50 [10]: 15 µM

Compound: C#CCN(C)[C@H](C)Cc1ccccc1 [SELEGILINE]
- IC50 [3]: 0.27 µM

Compound: C[C@]12CCC(=O)C=C1CC[C@@H]1[C@@H]2CC[C@]2(C)C(=O)CC[C@@H]12 [ANDROSTENEDIONE]
- IC50 [6]: 85.9 µM

Compound: Cc1cc(O)c2c(=O)c3c(O)cc(O)c4c5c(O)cc(O)c6c(=O)c7c(O)cc(C)c8c1c2c(c34)c(c78)c65 [HYPERICIN]
- IC50 [1]: 7.5 µM

Compound: CCC(=O)N[C@@H](Cc1c[nH]c2ccccc12)C(=O)N[C@H](C(=O)N1CCC[C@@H]1C(=O)NCC(=O)N[C@@H](CCCCN)C(=O)N[C@@H](Cc1c[nH]c2ccccc12)C(=O)N[C@H](C(=O)NCC(N)=O)[C@@H](C)O)[C@@H](C)CC
- Remaining aggregation (% of control) [4]: 69%
- Activity [7]: 37%
- inhibition [8]: 50%

Compound: Oc1cc(O)c2cc(O)c(-c3cc(O)c(O)c(O)c3)[o+]c2c1 [DELPHINIDIN CHLORIDE]
- IC50 [1]: 6.5 µM

Compound: C[C@]12CC[C@@H]3c4ccc(O)cc4CC[C@H]3[C@@H]1C[C@@H](O)[C@@H]2O [ESTRIOL]
- IC50 [6]: 20.1 µM

Compound: NCCc1ccc(O)c(O)c1 [DOPAMINE]
- IC50 [1]: 7.1 µM
- IC50 [3]: 0.53 µM

Compound: CC[C@H](C)[C@H](NC(=O)[C@H](Cc1c[nH]c2ccccc12)NC(=O)[C@H](CCCCN)NC(=O)CNC(=O)[C@H]1CCCN1C(=O)[C@@H](NC(=O)[C@H](Cc1c[nH]c2ccccc12)NC(=O)[C@@H](NC(=O)[C@@H](NC(=O)[C@H](CC(C)C)NC(=O)[C@H](CS)NC(=O)[C@@H](N)CCCCN)[C@@H](C)O)C(C)C)[C@@H](C)CC)C(=O)N[C@H](C(=O)N[C@H](C(=O)N[C@@H](CS)C(=O)N[C@@H](C)C(=O)O)C(C)C)[C@@H](C)O
- Activity [7]: 49%
- inhibition [8]: 50%

Compound: COc1cc(/C=C/C(=O)O)ccc1O [FERULATE]
- IC50 [2]: 0.75 µM

Compound: C[C@]12CC[C@H]3[C@@H](CCC4=CC(=O)CC[C@@]43C)[C@@H]1CC[C@@H]2O [TESTOSTERONE]
- IC50 [6]: 96.8 µM

Compound: H-KKLTVWI-OH
- Remaining aggregation (% of control) [4]: 61%
